# Tests used:
# Test in all cases: relative viability (nuclei count vs DMSO), 5 days (fraction); higher = more cells survive
# Metformin + Lapatinib = compound: CN(C)C(=N)NC(=N)N [Metformin] + CS(=O)(=O)CCNCc1ccc(-c2ccc3ncnc(Nc4ccc(OCc5cccc(F)c5)c(Cl)c4)c3c2)o1 [Lapatinib] (partner 2 µM)
# Summary of the method: (§1)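 A single step with final 0.05% Triton X-100, 1% formaldehyde and 1 ug/ml Hoechst fixed the cells and stained nuclei 5 days after treatment. Lung cancer cell lines in 1536-well plates had been treated by pin tool the day after seeding with one drug alone or a fixed anchor-drug dose plus five library-drug doses (not always all listed) in √10 steps, and nuclei were counted on 4× images. Relative viability is the ratio of nuclei in treated wells to nuclei in vehicle wells, taken as the median of duplicate plates.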
# Metformin + Olaparib = compound: CN(C)C(=N)NC(=N)N [Metformin] + O=C(c1cc(Cc2n[nH]c(=O)c3ccccc23)ccc1F)N1CCN(C(=O)C2CC2)CC1 [Olaparib] (partner 8 µM)
# Summary of the method: as §1
# Apatinib + Trametinib = compound: N#CC1(c2ccc(NC(=O)c3cccnc3NCc3ccncc3)cc2)CCCC1 [Apatinib] + CC(=O)Nc1cccc(-n2c(=O)n(C3CC3)c(=O)c3c(Nc4ccc(I)cc4F)n(C)c(=O)c(C)c32)c1 [Trametinib] (partner 0.02 µM)
# Summary of the method: as §1
# Apatinib + Olaparib = compound: N#CC1(c2ccc(NC(=O)c3cccnc3NCc3ccncc3)cc2)CCCC1 [Apatinib] + O=C(c1cc(Cc2n[nH]c(=O)c3ccccc23)ccc1F)N1CCN(C(=O)C2CC2)CC1 [Olaparib] (partner 8 µM)
# Summary of the method: as §1
cell line,measurement,setting,value
NCI-H460,relative viability,Metformin + Lapatinib; first compound 31.62 µM,1.15
same,relative viability,Metformin + Lapatinib; first compound 100 µM,0.9
same,relative viability,Metformin + Lapatinib; first compound 316.23 µM,0.849
same,relative viability,Metformin + Lapatinib; first compound 1000 µM,1.02
same,relative viability,Metformin + Olaparib; first compound 31.62 µM,0.412
same,relative viability,Metformin + Olaparib; first compound 100 µM,0.422
same,relative viability,Metformin + Olaparib; first compound 316.23 µM,0.294
same,relative viability,Metformin + Olaparib; first compound 1000 µM,0.262
same,relative viability,Apatinib + Trametinib; first compound 0.08 µM,0.119
same,relative viability,Apatinib + Trametinib; first compound 0.253 µM,0.172
same,relative viability,Apatinib + Trametinib; first compound 0.8 µM,0.223
same,relative viability,Apatinib + Trametinib; first compound 2.53 µM,0.134
same,relative viability,Apatinib + Trametinib; first compound 8 µM,0.128
same,relative viability,Apatinib + Olaparib; first compound 0.08 µM,0.407
same,relative viability,Apatinib + Olaparib; first compound 0.253 µM,0.444
same,relative viability,Apatinib + Olaparib; first compound 0.8 µM,0.344
same,relative viability,Apatinib + Olaparib; first compound 2.53 µM,0.323
same,relative viability,Apatinib + Olaparib; first compound 8 µM,0.237
